# Patent publication US9402849B2, “Composition for moderating alcohol metabolism and for reducing the risk of alcohol induced diseases” (Tima Foundation, priority 2005, dated 2016)
# “And” between values parts separate entries of the source, which are not always exact repeats. Equal entries are not always repeated.
# Legend:
# RPMI4788 cells = experiment: Alcohol enhanced pulmonary metastasis of RPMI4788 cells in nude mice (nodules on lung surface); format: in vivo
# Method: Ingredients of Supplement except Coenzyme Q10 were purchased from Sigma Aldrich Japan (Tokyo, Japan). Ten gram of dextrose, 1.0 gram of Vitamin C, 1.5 gram of L-glutamine, 500 mg of cysteine, 40 mg of riboflavin, 100 mg of succinic acid, 100 mg of fumaric acid, and 10 mg of niacin were dissolved in 100 ml of distilled water (Supplement Solution). One hundred mg of Coenzyme Q10 (Jarrow Formulas, Los Angels, Calif., USA) was dissolved in 14 ml of sesame oil.
# Male, 6-week-old nude mice of BALB/cA-jcl-nu/nu class were purchased (Clea Japan Inc., Shizuoka, Japan) and allowed to acclimate for one week prior to the study. During the experiment the mice were maintained at a temperature of 23° C., 50% humidity and a specific-pathogen-free (SPF) condition.
# RPM14788 cells derived from human colorectal cancer generate pulmonary metastasis in nude mouse (Moore G E & Koike A (1964), Cancer January, 17: 11-20; Kondo H. et al. (1987), Jpn J Cancer Res (Gann) 78, 12: 1400-1408). The cell line was subcultured in tissue culture flasks with culture medium of RPMI1640 solution (Nikken Biomedical Laboratory, Kyoto, Japan) supplemented with 10% Fetal Bovine Serum. (FBS) (Hycione Laboratories Inc., Logan, Utah) at 37° C., in an atmosphere of 100% humidity, 5% CO2 and 95% air. Following isolation of the cultured cells by 0.02% EDTA, a cell suspension was prepared using PBS of 0.01M; trypan blue staining confirmed cell viability over 98%.
# To produce lung metastases, nude mice were injected cell suspension of 5×10^4/0.1 ml into tail vein. Twenty-eight days after the injection, all metastatic nodules on the lung surface were counted. The lung was fixed in 10% neutral formaldehyde and embedded in paraffin. Sections were stained with Hematoxylin-Eosin and examined histologically.
# For testing the supplement, 320 μl of supplement solution and 50 μl of Co-Q10 dissolved sesame oil per mouse were administrated to the stomach by oral metal tube. For assaying the effects of Supplement+EtOH, one hour after the supplement administration, 7.0 ml/kg of ethanol were injected into the peritoneal cavity. Then 1 hour after the ethanol injection, 5×10^4/100 μl of RPM14788 cells were injected into the tail vein. The nude mice were sacrificed 28 days after the cell injection and the metastatic nodules on the lung surface were counted.
# YAC-1 cells = experiment: NK cytotoxic activity of nude mouse splenocytes, short-term 51Cr-release assay; format: in vivo; settings: for NK activity, % Control: EtOH versus control nude mice
# Method: A short-term ^51Cr-release assay was used to determine the natural killer (NK) cytotoxic activity. Mice were divided in following 3 groups; control, ethanol administration, and Supplement and ethanol administration. Twenty, four hours after the ethanol administration, splenocytes of the nude mouse were separated as single cell suspension. Target YAC-1 cells (1×10^7) were labeled by incubation with 200 μCi of ^51Cr for 2 hours at 37C. After being washed and then incubated for 2 hours at 37° C., the cells were supplemented in RPMI1640 medium. 20 μl of the labeled target cells and 100 μl of effector cells were mixed into a 96-well microliter plate (Sumitomo Bakelite Co., Ltd., Tokyo, Japan) at various effector/target cell ratios. After 4 hours of incubation, the plates were centrifuged and the radioactivity of the supernatant was measured by a gamma-counter. The percent of cytotoxicity was calculated as (experimental group release−spontaneous release/total release−spontaneous release). Statistical analysis of the results was conducted by t^2 test, and […] was defined as the level of significance.
structure (smiles),measurement,setting,value
"CCO [ETOH, ethanol]","Number of Metastatic nodules on the lung surface, Average","RPMI4788 cells; ETOH + 4788, 16 mice",42.25
same,"Number of Metastatic nodules on the lung surface, Total","RPMI4788 cells; ETOH + 4788, 16 mice",676
same,Number of Metastatic nodules on the lung surface,"RPMI4788 cells; ETOH + 4788, single mouse, ethanol 7.0 ml/kg i.p. 1 h before cells, 28 days",75 and 58 and 69 and 62 and 18 and 19 (2×) and 21 (2×) and 24 and 20 (2×) and 48 and 70 and 64 and 68
same,Total metastatic nodules minus 4788,"RPMI4788 cells; ETOH + 4788, total minus control total",251
same,Enhancement of metastatic potential of 4788 cell line,RPMI4788 cells; Ethanol + 4788 versus control,approximately 60%
same,NK activity,YAC-1 cells; EtOH,11.20%
same,"NK activity, % Control",YAC-1 cells; listed as EtOH,45.5%
same,"NK activity, % Control",YAC-1 cells; listed as Ethanol,45.5%
same,Average cont (51Cr release),"YAC-1 cells; EtOH, splenocytes 24 h after ethanol",568.6
